Non-standard residues stand in square brackets, D forms with d. Residues, ends and D or L forms follow the SMILES beside them. Hyp = O=C(O)[C@@H]1C[C@@H](O)CN1
Legend:
Type in all cases: biochemical
[1] = biological target: T1, NR2D (Rattus norvegicus, UniProt Q62645); test: [3H]MK-801 potentiation assay, NR2D; conditions: for NR2D Activity % max glycine: relative to stimulation by 1 mM glycine and 50 μM glutamate
T1 construct: corresponding to 200 μg of rat cortical membrane extract protein in each reaction; from tissue; host or cells: rat telencephalon (frontal cortex and hippocampus), male Sprague-Dawley

[2] = biological target: T2, NR2A (Rattus norvegicus, UniProt Q00959); test: [3H]MK-801 potentiation assay, NR2A
T2 construct: corresponding to 200 μg of rat cortical membrane extract protein in each reaction; from tissue; host or cells: rat telencephalon (frontal cortex and hippocampus), male Sprague-Dawley
Experimental: Briefly, tissue that had been stored at −80° C. was homogenized in ice cold 10 mM Tris (pH7.4 at 4° C.) using a Brinkman Polytron and then pelleted by centrifugation at 51,500 g for 20 min. The resulting supernatant was discarded and the membranes were homogenized and washed an additional 3×. Pellets were then resuspended in 5 mM EDTA/15 mM Tris (pH7.4) and incubated for 1 hr at 37° C. The membrane suspensions were then pelleted by centrifugation at 51,500 g for 20 min and stored at −80° C. overnight. The pellets were resuspended in 10 mM Tris HCl (pH7.4 at 4° C.) and homogenized and washed an additional 7 times and frozen at […] until assay.
Briefly, 300 μg of membrane extract protein were preincubated for 15 minutes at 25° C. in the presence of a saturating concentration of glutamate (50 μM) and varying concentrations of GLYX-13. […] Zero levels were determined in the absence of any glycine ligand in the presence of 30 μM dichlorokyneurenic acid. […]
The origin of aberrantly high background glycine, or bioactive plastic leachates that act like glycine, can stemrom either the water itself, the LC/MS grade water filter used, or a result of time-dependent leaching from plasticware (including storage tubes, beakers, pipette tips). […] Absolute background percentages are calculated. […]
Samples must wait at least 3 hours prior to quantitation in the scintillation counter. […]

[3] = biological target: T3, NR2C (Rattus norvegicus, UniProt P35439+Q00961); test: [3H]MK-801 potentiation assay, NR2C; conditions: in presence of 50 μM glutamate; read-out: NR2C Potency logM (converted)
T3 construct: corresponding to 200 μg of rat cortical membrane extract protein in each reaction; from tissue; host or cells: rat telencephalon (frontal cortex and hippocampus), male Sprague-Dawley

[4] = biological target: T4, NR2C (Rattus norvegicus, UniProt Q00961); test: [3H]MK-801 potentiation assay, NR2C; conditions: relative to stimulation by 1 mM glycine and 50 μM glutamate
T4 construct: corresponding to 200 μg of rat cortical membrane extract protein in each reaction; from tissue; host or cells: rat telencephalon (frontal cortex and hippocampus), male Sprague-Dawley

[5] = biological target: T5, NR2B (Rattus norvegicus, UniProt Q00960); test: [3H]MK-801 potentiation assay, NR2B
T5 construct: corresponding to 200 μg of rat cortical membrane extract protein in each reaction; from tissue; host or cells: rat telencephalon (frontal cortex and hippocampus), male Sprague-Dawley
Experimental: Crude synaptic membranes were prepared using rat telencephalon (frontal cortex and hippocampus tissue) from male Sprague-Dawley rats and extensively washed using procedures modified from the Moskal et al. 2001 Review; The use of antibody engineering to create novel drugs that target N-methyl-D-aspartate receptors, Current Drug Targets, 2(3):331-45. Briefly, tissue that had been stored at −80° C. was homogenized in ice cold 10 mM Tris (pH7.4 at 4° C.) using a Brinkman Polytron and then pelleted by centrifugation at 51,500 g for 20 min. The resulting supernatant was discarded and the membranes were homogenized and washed an additional 3×. […]
Functional glycine site agonist effects were measured using an a [^3H]MK-801 potentiation assay (see Urwyler S, Floersheim P, Roy B L, Koller M. J Med Chem. (2009) 52(16):5093-107). […] Zero levels were determined in the absence of any glycine ligand in the presence of 30 μM dichlorokyneurenic acid. The % maximal [^3H]MK-801 binding was calculated relative to stimulation measured in the presence of 1 mM glycine and 50 μM glutamate. […]
For compounds with relatively low activity (e.g., GLYX-13), the identification and elimination of background glycine levels can have a significant effect on the interpretation of this assay. […] Absolute background percentages are calculated. […]

[6] = relative to stimulation by 1 mM glycine and 50 μM glutamate

T1 sequence (Q62645 28-1323, other chains not shown): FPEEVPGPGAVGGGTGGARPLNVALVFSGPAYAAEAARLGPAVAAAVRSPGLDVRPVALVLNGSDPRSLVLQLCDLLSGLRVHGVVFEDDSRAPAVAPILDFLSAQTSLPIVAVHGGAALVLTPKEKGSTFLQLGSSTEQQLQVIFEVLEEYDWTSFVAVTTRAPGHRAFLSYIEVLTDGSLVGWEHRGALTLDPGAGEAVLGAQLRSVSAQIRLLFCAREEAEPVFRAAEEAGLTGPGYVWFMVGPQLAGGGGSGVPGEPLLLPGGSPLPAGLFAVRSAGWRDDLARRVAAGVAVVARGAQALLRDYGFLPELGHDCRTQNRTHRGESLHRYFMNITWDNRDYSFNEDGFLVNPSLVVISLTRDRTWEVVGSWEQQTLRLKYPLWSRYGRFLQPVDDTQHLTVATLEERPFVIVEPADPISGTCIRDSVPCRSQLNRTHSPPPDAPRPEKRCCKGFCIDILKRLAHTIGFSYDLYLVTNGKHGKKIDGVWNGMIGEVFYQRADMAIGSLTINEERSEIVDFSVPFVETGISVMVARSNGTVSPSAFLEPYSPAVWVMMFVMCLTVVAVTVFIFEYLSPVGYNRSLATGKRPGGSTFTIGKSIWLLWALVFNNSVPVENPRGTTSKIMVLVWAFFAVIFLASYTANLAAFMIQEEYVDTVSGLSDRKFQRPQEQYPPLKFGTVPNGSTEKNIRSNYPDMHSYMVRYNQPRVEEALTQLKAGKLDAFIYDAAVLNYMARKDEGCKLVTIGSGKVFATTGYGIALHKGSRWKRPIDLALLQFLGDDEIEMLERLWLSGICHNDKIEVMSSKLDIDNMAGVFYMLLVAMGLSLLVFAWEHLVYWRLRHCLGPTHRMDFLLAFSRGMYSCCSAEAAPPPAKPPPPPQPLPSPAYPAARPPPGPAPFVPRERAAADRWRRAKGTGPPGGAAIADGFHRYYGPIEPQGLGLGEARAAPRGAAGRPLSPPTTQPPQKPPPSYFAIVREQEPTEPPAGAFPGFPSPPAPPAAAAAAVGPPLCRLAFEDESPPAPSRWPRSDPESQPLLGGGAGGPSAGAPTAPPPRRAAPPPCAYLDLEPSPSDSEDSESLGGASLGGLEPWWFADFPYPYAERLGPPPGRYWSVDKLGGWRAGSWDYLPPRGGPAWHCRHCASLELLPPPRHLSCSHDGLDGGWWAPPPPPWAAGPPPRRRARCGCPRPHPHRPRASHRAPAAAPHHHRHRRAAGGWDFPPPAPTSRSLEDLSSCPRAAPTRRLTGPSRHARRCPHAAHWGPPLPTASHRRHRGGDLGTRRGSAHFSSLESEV
T5 sequence (Q00960 27-1482, other chains not shown): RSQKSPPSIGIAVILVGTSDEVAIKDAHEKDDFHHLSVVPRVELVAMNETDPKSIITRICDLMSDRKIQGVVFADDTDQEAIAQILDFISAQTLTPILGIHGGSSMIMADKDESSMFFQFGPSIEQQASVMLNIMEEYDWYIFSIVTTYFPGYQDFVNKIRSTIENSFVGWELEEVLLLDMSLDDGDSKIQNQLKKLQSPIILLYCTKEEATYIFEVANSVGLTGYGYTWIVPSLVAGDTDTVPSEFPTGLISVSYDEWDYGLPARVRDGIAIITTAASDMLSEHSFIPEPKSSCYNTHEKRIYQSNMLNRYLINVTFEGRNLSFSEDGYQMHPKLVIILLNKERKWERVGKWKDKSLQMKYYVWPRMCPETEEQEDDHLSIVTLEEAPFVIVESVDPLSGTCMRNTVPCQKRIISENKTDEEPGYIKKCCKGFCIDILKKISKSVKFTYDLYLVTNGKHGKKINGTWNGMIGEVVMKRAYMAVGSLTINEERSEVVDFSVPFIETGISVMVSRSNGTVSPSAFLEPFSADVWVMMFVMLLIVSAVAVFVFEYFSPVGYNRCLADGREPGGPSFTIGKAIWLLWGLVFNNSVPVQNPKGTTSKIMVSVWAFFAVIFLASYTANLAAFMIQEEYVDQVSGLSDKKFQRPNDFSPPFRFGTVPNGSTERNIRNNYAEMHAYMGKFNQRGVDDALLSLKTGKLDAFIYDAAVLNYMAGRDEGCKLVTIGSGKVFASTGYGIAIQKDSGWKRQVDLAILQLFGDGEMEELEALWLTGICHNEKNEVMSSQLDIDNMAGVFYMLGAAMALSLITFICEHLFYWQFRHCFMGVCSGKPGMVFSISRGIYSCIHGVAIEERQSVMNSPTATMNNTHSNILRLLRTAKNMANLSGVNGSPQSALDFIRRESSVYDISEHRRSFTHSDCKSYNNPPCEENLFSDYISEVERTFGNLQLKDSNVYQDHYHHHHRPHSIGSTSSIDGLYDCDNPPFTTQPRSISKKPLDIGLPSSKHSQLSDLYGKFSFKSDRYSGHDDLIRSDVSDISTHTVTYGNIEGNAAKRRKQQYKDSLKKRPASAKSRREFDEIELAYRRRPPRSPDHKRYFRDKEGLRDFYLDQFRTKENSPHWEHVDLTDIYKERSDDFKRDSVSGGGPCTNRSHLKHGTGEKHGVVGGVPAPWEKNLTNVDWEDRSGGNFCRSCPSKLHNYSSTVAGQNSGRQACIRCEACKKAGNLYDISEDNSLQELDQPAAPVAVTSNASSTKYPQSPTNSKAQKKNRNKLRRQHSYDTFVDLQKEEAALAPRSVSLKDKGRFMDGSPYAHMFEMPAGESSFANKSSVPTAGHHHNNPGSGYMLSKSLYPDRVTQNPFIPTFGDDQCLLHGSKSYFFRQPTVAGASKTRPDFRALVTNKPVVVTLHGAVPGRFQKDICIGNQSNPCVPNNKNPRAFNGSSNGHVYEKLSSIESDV
T2 sequence (Q00959 23-1464, other chains not shown): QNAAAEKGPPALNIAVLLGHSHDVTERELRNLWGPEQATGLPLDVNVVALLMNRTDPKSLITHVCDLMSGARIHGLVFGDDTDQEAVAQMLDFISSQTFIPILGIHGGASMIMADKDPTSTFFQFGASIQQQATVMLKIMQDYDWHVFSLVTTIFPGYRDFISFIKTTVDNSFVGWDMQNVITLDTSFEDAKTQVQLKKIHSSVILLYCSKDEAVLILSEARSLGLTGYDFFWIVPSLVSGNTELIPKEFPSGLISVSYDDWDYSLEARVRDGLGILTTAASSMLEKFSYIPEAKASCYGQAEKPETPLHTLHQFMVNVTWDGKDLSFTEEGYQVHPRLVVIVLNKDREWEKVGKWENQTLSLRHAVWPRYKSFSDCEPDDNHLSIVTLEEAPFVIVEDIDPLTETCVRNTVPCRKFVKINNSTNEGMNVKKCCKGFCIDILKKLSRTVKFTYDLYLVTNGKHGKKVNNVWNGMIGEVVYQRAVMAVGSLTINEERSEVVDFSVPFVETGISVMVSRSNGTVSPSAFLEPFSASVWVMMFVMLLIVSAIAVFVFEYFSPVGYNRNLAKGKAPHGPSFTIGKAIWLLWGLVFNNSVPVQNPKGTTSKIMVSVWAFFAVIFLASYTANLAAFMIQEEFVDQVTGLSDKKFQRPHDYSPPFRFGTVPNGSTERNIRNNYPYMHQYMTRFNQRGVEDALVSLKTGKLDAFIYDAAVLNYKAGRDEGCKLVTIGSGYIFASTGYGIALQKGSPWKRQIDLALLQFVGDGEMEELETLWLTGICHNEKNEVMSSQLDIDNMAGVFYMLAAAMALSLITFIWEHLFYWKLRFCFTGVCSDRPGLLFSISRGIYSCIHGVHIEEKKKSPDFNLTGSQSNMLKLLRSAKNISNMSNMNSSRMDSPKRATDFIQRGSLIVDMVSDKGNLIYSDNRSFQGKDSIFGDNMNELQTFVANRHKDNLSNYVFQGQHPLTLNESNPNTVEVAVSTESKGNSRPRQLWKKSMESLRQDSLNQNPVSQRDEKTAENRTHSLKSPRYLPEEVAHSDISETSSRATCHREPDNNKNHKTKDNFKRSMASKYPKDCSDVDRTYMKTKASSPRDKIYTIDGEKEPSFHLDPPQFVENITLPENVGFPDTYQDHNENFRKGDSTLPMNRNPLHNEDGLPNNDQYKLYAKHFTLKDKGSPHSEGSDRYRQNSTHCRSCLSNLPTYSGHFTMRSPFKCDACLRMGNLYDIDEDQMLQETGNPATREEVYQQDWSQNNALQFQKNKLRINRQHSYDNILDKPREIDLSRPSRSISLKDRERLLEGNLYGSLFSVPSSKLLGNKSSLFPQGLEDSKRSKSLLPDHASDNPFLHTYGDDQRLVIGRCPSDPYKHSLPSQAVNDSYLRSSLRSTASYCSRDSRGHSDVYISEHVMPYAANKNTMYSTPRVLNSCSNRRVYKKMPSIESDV

EC50 [3] [pM] | NR2C Activity % max glycine [4] [% max glycine] | EC50 ([1]; in presence of 50 μM glutamate, read-out: NR2D Potency logM (converted)) [pM] | NR2B Potency logM ([5]; in presence of 50 μM glutamate) [logM] | NR2B Activity % max glycine [5, 6] [% max glycine] | Compound | NR2D Potency logM ([1]; in presence of 50 μM glutamate) [logM] | NR2D Activity % max glycine [1] [% max glycine] | EC50 ([2]; in presence of 50 μM glutamate, read-out: NR2A Potency logM (converted)) [pM] | NR2A Activity % max glycine [2, 6] [% max glycine]
– | – | – | – | – | CC(=O)OC1C[C@@H](C(=O)N[C@@H](Cc2c[nH]c3ccccc23)C(=O)N[C@H](C(N)=O)[C@@H](C)O)N(C(=O)[C@@H](N)[C@@H](C)O)C1 (stereo partly shown) [Compound A-3] | −13.68 | 35.17 | 17.4 | 58.25
2.09 | 38.75 | 2.34 | −13.86 | 29.53 | C[C@@H](O)[C@H](NC(=O)[C@H](Cc1c[nH]c2ccccc12)NC(=O)[C@@H]1C[C@@H](O)CN1)C(N)=O [Compound A-5] (H-[Hyp]-Trp-Thr-NH2) | – | 41.34 | – | –
